For 26 compounds, Activity, IC50 and inhibition results are on record in ChEMBL document CHEMBL4396930, “Identification of new dual FABP4/5 inhibitors based on a naphthalene-1-sulfonamide FABP4 inhibitor” (Bioorg Med Chem, 2019).

For data set [1], the system named is RAW264.7. Kind of data set: Cytotoxicity against mouse RAW264.7 cells assessed as reduction in cell viability at 30 to 60 uM incubated for 24 hrs by MTT assay. The class given is cell-based. The conditions noted are these: raw264.7, 24 h.
Data set [2] relates to 3T3-L1. Kind of data set: Cytotoxicity against mouse 3T3L1 cells assessed as reduction in cell viability at 30 to 60 uM incubated for 24 hrs by MTT assay. It is filed as cell-based. The conditions noted are these: 3t3-l1, 24 h. (In general: Tetrazolium assays rely on reduction of a dye to a coloured formazan, in cell work by metabolically active cells.)
The target in data set [3] is Fatty acid-binding protein, adipocyte (Homo sapiens, UniProt P15090). The data set is described as follows: Displacement of 1,8-ANS from human recombinant full length N-terminal his-tagged FABP4 expressed in Escherichia coli BL21 (DE3) incubated for 3 mins by fluorescence based assay.
For data set [4], the target named is Fatty acid-binding protein 5 (Homo sapiens, UniProt Q01469). Kind of data set: Displacement of 1,8-ANS from human recombinant full length N-terminal his-tagged FABP5 expressed in Escherichia coli BL21 (DE3) incubated for 3 mins by fluorescence based assay.
In data set [5] the target is Fatty acid-binding protein, heart (Homo sapiens, UniProt P05413). The data set is described as follows: Displacement of 1,8-ANS from FABP3 (unknown origin) incubated for 3 mins by fluorescence based assay.
Data set [6] has as its system RAW264.7. The data set is described as follows: Antiinflammatory activity against mouse RAW264.7 cells assessed as inhibition of LPS-induced MCP-1 gene expression level at 30 uM preincubated for 12 hrs followed by LPS addition and measured after 6 hrs by qRT PCR analysis relative to control. It is filed as functional.
Data set [7] relates to RAW264.7. The data set is described as follows: Antiinflammatory activity against mouse RAW264.7 cells assessed as inhibition of LPS-induced TNFalpha gene expression level at 30 uM preincubated for 12 hrs followed by LPS addition and measured after 6 hrs by qRT PCR analysis relative to control. The class given is functional.

Structures are written as SMILES.

Fatty acid-binding protein 5, sequence (Q01469 whole entry): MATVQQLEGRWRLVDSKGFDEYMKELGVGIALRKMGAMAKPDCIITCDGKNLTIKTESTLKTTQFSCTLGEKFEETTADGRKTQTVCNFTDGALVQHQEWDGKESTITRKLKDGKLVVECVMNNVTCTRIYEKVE
Fatty acid-binding protein, adipocyte, sequence (P15090 whole entry): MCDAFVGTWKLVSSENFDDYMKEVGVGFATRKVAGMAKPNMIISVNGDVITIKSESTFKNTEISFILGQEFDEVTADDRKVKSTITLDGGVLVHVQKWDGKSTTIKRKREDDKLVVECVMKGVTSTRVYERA
Fatty acid-binding protein, heart, sequence (P05413 whole entry): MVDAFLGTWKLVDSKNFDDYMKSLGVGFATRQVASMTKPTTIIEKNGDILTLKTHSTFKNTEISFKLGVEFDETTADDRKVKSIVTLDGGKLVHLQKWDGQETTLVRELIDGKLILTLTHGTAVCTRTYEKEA

As for `COc1ccc(S(=O)(=O)Nc2ccc(F)c(C(=O)O)c2)c2ccccc12`, the Activity result in data set [1] and in data set [2] was “Non-Toxic” throughout.
As usually defined, the IC50 is the concentration at which inhibition is half-maximal. For `COc1c(-c2ccc(O)cc2)cc(S(=O)(=O)Nc2ccc(F)c(C(=O)O)c2)c2ccccc12`, in data set [3], the half-maximal inhibitory concentration (IC50) amounted to 1.19 µM.
For `CCCCCCCCOc1ccc(S(=O)(=O)Nc2ccc(F)c(C(=O)O)c2)c2ccccc12`, the IC50 in data set [3] was determined as 4.04 µM; in data set [4], 4.19 µM.
By inhibition is commonly meant the relative decrease from the control value, in per cent. As for `O=C(O)c1cc(NS(=O)(=O)c2ccc(OCCC3CCCCC3)c3ccccc23)ccc1F`, the Activity result in data set [1] and in data set [2] was “Non-Toxic” each time. Further, the IC50 in data set [3] was determined as 1.97 µM; in data set [4], 4.85 µM; in data set [5] it was 55.6 µM. Besides, the inhibition at 30 µM in data set [6] came to 29%; in data set [7], 24%.
On to `Cc1c(Cl)cccc1OCc1cc(=O)n2nc(-c3ccccc3)nc2[nH]1`, for which the Activity entry in data set [1] and in data set [2] was “Toxic” throughout.
In the case of `COc1c(-c2ccncc2)cc(S(=O)(=O)Nc2ccc(F)c(C(=O)O)c2)c2ccccc12`, the IC50 in data set [3] was determined as 3.54 µM.
As to `O=C(O)c1cc(NS(=O)(=O)c2ccc(OCCCC3CCCCC3)c3ccccc23)ccc1F`, the half-maximal inhibitory concentration (IC50) was 3.59 µM in data set [3] and 3.63 µM in data set [4].
On to `O=C(O)c1cc(NS(=O)(=O)c2ccc(OCC3CCCCC3)c3ccccc23)ccc1F`, for which the IC50 worked out at 2.41 µM in data set [3] and 8.12 µM in data set [4].
Turning to `CCOc1ccc(S(=O)(=O)Nc2ccc(F)c(C(=O)O)c2)c2ccccc12`, the IC50 in data set [3] turned out to be 2.64 µM.
With `CCCCCCOc1ccc(S(=O)(=O)Nc2ccc(F)c(C(=O)O)c2)c2ccccc12`, the IC50 was determined as 2.43 µM in data set [3] and 4.17 µM in data set [4].
For the compound `CCCCCCCCCCCCOc1ccc(S(=O)(=O)Nc2ccc(F)c(C(=O)O)c2)c2ccccc12`, the IC50 in data set [3] was 24.8 µM.
With `O=C(O)c1cc(NS(=O)(=O)c2ccc(OC3CCCCCC3)c3ccccc23)ccc1F`, the results for the IC50 in data set [3] and in data set [4] were 2.37 µM and 3.3 µM, respectively.
`O=C(O)c1cc(NS(=O)(=O)c2ccc(OCC34CC5CC(CC(C5)C3)C4)c3ccccc23)ccc1F`: the IC50 is 14.8 µM in data set [3] and 4.61 µM in data set [4].
As for `COc1c(-c2ccc(Cl)c(Cl)c2)cc(S(=O)(=O)Nc2ccc(F)c(C(=O)O)c2)c2ccccc12`, in data set [3], the IC50 is 4.38 µM.
Turning to `O=C(O)c1cc(NS(=O)(=O)c2ccc(OCc3ccccc3)c3ccccc23)ccc1F`, in data set [3], the IC50 came to 3.15 µM.
For `CCCCCCCOc1ccc(S(=O)(=O)Nc2ccc(F)c(C(=O)O)c2)c2ccccc12`, the half-maximal inhibitory concentration (IC50) amounted to 2.3 µM in data set [3] and 2.76 µM in data set [4].
As to `CCCCCOc1ccc(S(=O)(=O)Nc2ccc(F)c(C(=O)O)c2)c2ccccc12`, the IC50 is 2.99 µM in data set [3] and 8.32 µM in data set [4].
For the compound `COc1c(-c2cccc(O)c2)cc(S(=O)(=O)Nc2ccc(F)c(C(=O)O)c2)c2ccccc12`, the IC50 in data set [3] is 1.89 µM.
For the compound `COc1c(-c2ccc(F)cc2)cc(S(=O)(=O)Nc2ccc(F)c(C(=O)O)c2)c2ccccc12`, the IC50 came out at 1.74 µM in data set [3] and 10 µM in data set [4].
In the case of `COc1c(-c2ccccc2)cc(S(=O)(=O)Nc2ccc(F)c(C(=O)O)c2)c2ccccc12`, in data set [3], the IC50 turned out to be 1.19 µM.
For `CCCCCCCCCCOc1ccc(S(=O)(=O)Nc2ccc(F)c(C(=O)O)c2)c2ccccc12`, the 50% inhibitory concentration (IC50) amounted to 4.73 µM in data set [3] and 4.48 µM in data set [4].
Regarding `COc1c(-c2ccoc2)cc(S(=O)(=O)Nc2ccc(F)c(C(=O)O)c2)c2ccccc12`, the concentration for half-maximal inhibition (IC50) in data set [3] is 3.53 µM.
With `COc1c(-c2cccc(N)c2)cc(S(=O)(=O)Nc2ccc(F)c(C(=O)O)c2)c2ccccc12`, the half-maximal inhibitory concentration (IC50) in data set [3] was determined as 1.7 µM.
On to `COc1c(-c2ccc(F)c(Cl)c2)cc(S(=O)(=O)Nc2ccc(F)c(C(=O)O)c2)c2ccccc12`, for which the Activity entry in data set [1] and in data set [2] was “Non-Toxic” in each case. For the same compound, the IC50 in data set [3] was found to be 1.58 µM; in data set [5], 46.8 µM. The inhibition at 30 µM in data set [6] was found to be 32%; in data set [7], 23%.
Take `COc1c(-c2ccc(F)c(F)c2)cc(S(=O)(=O)Nc2ccc(F)c(C(=O)O)c2)c2ccccc12`: the IC50 in data set [3] was 2.98 µM.
Consider `O=C(O)c1cc(NS(=O)(=O)c2ccc(OC3CCCCC3)c3ccccc23)ccc1F`, for which the IC50 in data set [3] was 2.2 µM; in data set [4], 7.66 µM.
